Experimental data reported in ChEMBL document CHEMBL1121978, “Ultra-short-acting beta-adrenergic receptor blocking agents. 2. (Aryloxy)propanolamines containing esters on the aryl function” (J Med Chem, 1982).
Active and inactive are the calls of the source. No cut-off for these calls is given here.

Tests used:
[1] = target: Beta-1 adrenergic receptor (Canis lupus familiaris) (UniProt P79148)
[2] = target: Beta-1 adrenergic receptor (Cavia porcellus, UniProt B0FL73); test: The compound was tested in vitro for its ability to block Beta-1 adrenergic receptor in guinea pig right atria preparation; details: read-out: pA2 (converted)
Chain of Beta-1 adrenergic receptor (B0FL73 whole entry): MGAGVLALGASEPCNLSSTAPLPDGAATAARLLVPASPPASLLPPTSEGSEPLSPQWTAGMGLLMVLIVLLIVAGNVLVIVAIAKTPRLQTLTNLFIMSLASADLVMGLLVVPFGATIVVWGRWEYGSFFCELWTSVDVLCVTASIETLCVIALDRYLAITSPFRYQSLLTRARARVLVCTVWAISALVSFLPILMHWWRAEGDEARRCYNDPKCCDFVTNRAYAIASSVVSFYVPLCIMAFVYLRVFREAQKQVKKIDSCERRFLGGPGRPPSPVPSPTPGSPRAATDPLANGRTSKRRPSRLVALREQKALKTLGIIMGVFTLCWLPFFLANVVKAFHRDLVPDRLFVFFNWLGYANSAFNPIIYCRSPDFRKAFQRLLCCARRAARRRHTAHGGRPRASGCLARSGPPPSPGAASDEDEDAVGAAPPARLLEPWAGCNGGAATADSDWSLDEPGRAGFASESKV

[3] = target: Beta-1 adrenergic receptor (Cavia porcellus) (UniProt B0FL73); test: Cardioselectivity expressed as antilog of pA2 (atria)-pA2 (trachea).
Chain of Beta-1 adrenergic receptor (Cavia porcellus) (B0FL73 1-467): as the sequence (B0FL73 whole entry) above

[4] = target: Beta-1 adrenergic receptor (Canis lupus familiaris) (UniProt P79148); remark: listed apart in the source
[5] = target: Beta-1 adrenergic receptor (Cavia porcellus) (UniProt B0FL73)
Description: The compound was tested in vivo for its ability to block beta-1-adrenergic receptor in guinea pig right atria preparation at a duration of 3h

[6] = target: Beta-1 adrenergic receptor (Cavia porcellus) (UniProt B0FL73); test: The compound was tested in vitro for its ability to block Beta-1 adrenergic receptor in guinea pig right atria preparation at 10e-5M; inactive

Compound | In vivo duration [1] [min] | In vivo duration [4] [min] | further results
CCOC(=O)c1ccccc1OCC(O)CNC(C)(C)C (stereo not drawn) | 38 | – | –
C=COC(=O)c1ccc(OCC(O)CNC(C)C)cc1 (stereo not drawn) | – | – | Kb [2]: 501 nM; Cardio selectivity [3]: 5
COC(=O)/C=C/c1ccc(OCC(O)CNC(C)C)cc1 (stereo not drawn) | > 60 | – | Cardio selectivity [3]: 18
COC(=O)c1ccccc1OCC(O)CNCCc1ccc(OC)c(OC)c1 (stereo not drawn) | 30 | – | –
COC(=O)CCc1ccc(OCC(O)CNCCCc2ccccc2)cc1 (stereo not drawn) | – | – | Cardio selectivity [3]: 20
COC(=O)c1ccccc1OCC(O)CNC(C)(C)C (stereo not drawn) | 22 | 12 | –
COC(=O)c1ccccc1OCC(O)CNC(C)(C)CO (stereo not drawn) | 55 | – | –
C=COC(=O)c1ccccc1OCC(O)CNC(C)C (stereo not drawn) | – | – | Kb [2]: 12.6 nM
COC(=O)CCc1ccccc1OCC(O)CNC(C)C (stereo not drawn) | 29 | – | –
C=COC(=O)c1cccc(OCC(O)CNC(C)C)c1 (stereo not drawn) | – | – | Kb [2]: 126 nM; In vivo duration [5]: > 60 min
CC(=O)Nc1ccc(OCC(O)CNC(C)C)cc1 (stereo not drawn) | – | 61 | –
CCOC(=O)c1ccc(OCC(O)CNC(C)C)cc1 (stereo not drawn) | – | 56 | –
COC(=O)CCCc1ccc(OCC(O)CNC(C)C)cc1 (stereo not drawn) | > 60 | 40 | Cardio selectivity [3]: 13
COC(=O)c1ccc(OCC(O)CNC(C)(C)C)cc1 (stereo not drawn) | – | 22 | –
COC(=O)c1ccccc1OCC(O)CNC(C)C (stereo not drawn) | 15 | 15 | –
CCOC(=O)CCc1ccc(OCC(O)CNC(C)C)cc1 (stereo not drawn) | 43 | – | Cardio selectivity [3]: 30
COC(=O)c1ccc(OCC(O)CNC(C)C)cc1 (stereo not drawn) | – | 31 | –
CC(C)NCC(O)COc1ccc(C(=O)O)cc1 (stereo not drawn) | – | – | pA2 [6]: inactive

The next lines start with results.

In vivo duration [1] [min] | In vivo duration [4] [min] | Compound | further results
> 60 | 20 | COC(=O)Cc1ccc(OCC(O)CNC(C)C)cc1 (stereo not drawn) | –
14 | – | COC(=O)CCc1ccc(OCC(O)CNCCc2ccc(OC)c(OC)c2)cc1 (stereo not drawn) | Cardio selectivity [3]: 20
15 | – | COC(=O)CCc1ccc(OCC(O)CNC(C)(C)C)cc1 (stereo not drawn) | –
12 | 12 | COC(=O)CCc1ccc(OCC(O)CNC(C)C)cc1 (stereo not drawn) | –
